Reference: paper PMC9232448 (European Journal of Drug Metabolism and Pharmacokinetics, 2022)
Like-named read-outs stand apart in the source and are kept apart here.

What was measured:
CYP3A = conditions: human, in vivo; cited from earlier work
CYP3A4 mRNA = CYP3A4 mRNA induction in plated cryopreserved human hepatocytes; type: cell-based; conditions: three donors; for true negative in vitro induction: statistical dose response and fold induction
[1] = Metabolic stability in hepatocyte induction incubations; type: in vitro ADME, human; conditions: last 24 hours of the incubation
[2] = cited from earlier work
[3] = cited from earlier work; remark: listed apart in the source
human hepatocytes = assay: Cytotoxicity / bell-shaped curves in hepatocyte induction incubations; type: cell-based; conditions: for concentrations removed from fitting (bell-shaped curve, suspected cytotoxicity): all donors; for concentration above which cytotoxicity was seen: donor two
[4] = Estimated free fraction in culture medium; conditions: bovine, hepatocyte culture medium with 1.25 mg/ml BSA
[5] = reported value before fu was set to 0.01

## NC(=O)N1c2ccccc2C=Cc2ccccc21 [Carbamazepine]
CYP3A
  AUCR range: 0.124–0.603

## CCC1(c2ccccc2)C(=O)NC(=O)NC1=O [Phenobarbital]
CYP3A
  AUCR: 0.394

## O=C(O)c1ccc(CN2C[C@@H]3C[C@H]2CN3Cc2ccc(Oc3ccc(-c4ncco4)cc3)cc2)cc1 [Acebilustat, acebilustat]
CYP3A4 mRNA
  true negative in vitro induction: true in vitro negatives in all three donors
[1]
  % loss when comparing the Cavg to the T0 concentration (limited depletion): < 25%

## Cc1nnc(C(=O)NC(C)(C)c2nc(C(=O)NCc3ccc(F)cc3)c(O)c(=O)n2C)o1 [Raltegravir, raltegravir]
CYP3A4 mRNA
  true negative in vitro induction: true in vitro negatives in all three donors

## O=C1NC(=O)C(c2ccccc2)(c2ccccc2)N1 [Phenytoin]
CYP3A
  AUCR range: 0.105–0.607

## CC(C)N(CCCCOCC(=O)NS(C)(=O)=O)c1cnc(-c2ccccc2)c(-c2ccccc2)n1 [Selexipag, selexipag]
[2]; [5]
  fu (reported plasma protein binding): < 0.01
CYP3A4 mRNA
  concentration-dependent increase in CYP3A4 mRNA: concentration-dependent increases in all three donors

## Cn1cnc2c(F)c(Nc3ccc(Br)cc3F)c(C(=O)NOCCO)cc21 [Binimetinib]
CYP3A4 mRNA
  concentration-dependent increase in CYP3A4 mRNA: concentration-dependent increases in all three donors

## CN(CCOc1ccc(CC2SC(=O)NC2=O)cc1)c1ccccn1 (stereo not drawn) [rosiglitazone]
[3]
  observed fu,in vitro: 0.15

## O=C(O)CSc1nnc(Br)n1-c1ccc(C2CC2)c2ccccc12 [Lesinurad, lesinurad]
CYP3A4 mRNA
  concentration-dependent increase in CYP3A4 mRNA: concentration-dependent increases in all three donors
[1]
  % loss when comparing the Cavg to the T0 concentration (limited depletion): < 25%
Human hepatocytes
  concentrations removed from fitting (bell-shaped curve, suspected cytotoxicity): > 100 µM

## Cc1cc(CCCOc2c(C)cc(-c3noc(C(F)(F)F)n3)cc2C)on1 [Pleconaril]
[3]
  correction factor applied to nominal concentrations (nonspecific binding): 0.2
[4]
  fraction unbound: 0.256
[2]; [5]
  fu (reported plasma protein binding): 0.01

## CO[C@H]1/C=C/O[C@@]2(C)Oc3c(C)c(O)c4c(O)c(c5c(nc6cc(C)ccn65)c4c3C2=O)NC(=O)/C(C)=C\C=C\[C@H](C)[C@H](O)[C@@H](C)[C@@H](O)[C@@H](C)[C@H](OC(C)=O)[C@@H]1C [Rifaximin, rifaximin]
CYP3A4 mRNA
  concentration-dependent increase in CYP3A4 mRNA: concentration-dependent increases in all three donors
[1]
  % loss when comparing the Cavg to the T0 concentration (limited depletion): < 25%

## CCC(=O)NC[C@@H]1C[C@H]1c1cccc2c1CCO2 [Tasimelteon, tasimelteon]
CYP3A4 mRNA
  concentration-dependent increase in CYP3A4 mRNA: concentration-dependent increases in all three donors

## COc1ccccc1Oc1c(NS(=O)(=O)c2ccc(C(C)(C)C)cc2)nc(-c2ncccn2)nc1OCCO [Bosentan]
[3]
  observed fu,in vitro: 0.38

## O=C(O)c1ccc2nc(-c3cc(Cl)cc(Cl)c3)oc2c1 [Tafamidis, tafamidis]
[2]; plasma
  fu (reported plasma protein binding): 0.005
CYP3A4 mRNA
  concentration-dependent increase in CYP3A4 mRNA: concentration-dependent increases in all three donors
[1]
  % loss when comparing the Cavg to the T0 concentration (limited depletion): < 25%

## Nc1nc(-n2cc(C(=O)O)c(=O)c3cc(F)c(N4CC(O)C4)c(Cl)c32)c(F)cc1F [Delafloxacin, delafloxacin]
CYP3A4 mRNA
  true negative in vitro induction: negative in two donors
  concentration-dependent increase in CYP3A4 mRNA: concentration-dependent increases in one of three donors
[1]
  % loss when comparing the Cavg to the T0 concentration (limited depletion): < 25%
Human hepatocytes; donor three
  concentration at which apparent cytotoxicity was seen: 300 µM
Human hepatocytes
  concentration above which cytotoxicity was seen: > 100 µM

## CCc1ccc(CCOc2ccc(CC3SC(=O)NC3=O)cc2)nc1 (stereo not drawn) [pioglitazone]
[3]
  observed fu,in vitro: 0.22

## O=C1Nc2ccc(Cl)cc2[C@@](C#CC2CC2)(C(F)(F)F)O1 [Efavirenz]
[2]; plasma
  fu (reported plasma protein binding): 0.0025
CYP3A
  AUCR range: 0.240–0.929

## Cc1cc(/C=C/C#N)cc(C)c1Nc1ccnc(Nc2ccc(C#N)cc2)n1 [Rilpivirine, rilpivirine]
CYP3A4 mRNA
  concentration-dependent increase in CYP3A4 mRNA: concentration-dependent increases in all three donors
Human hepatocytes
  concentration above which cytotoxicity was seen: > 100 µM
Human hepatocytes; donors one
  concentration above which signs of cytotoxicity were seen: > 30 µM

## Cn1c(Cn2ccc(C(F)(F)F)c(Oc3cc(Cl)cc(C#N)c3)c2=O)n[nH]c1=O [Doravirine, doravirine]
CYP3A4 mRNA
  concentration-dependent increase in CYP3A4 mRNA: concentration-dependent increases in all three donors
[1]
  % loss when comparing the Cavg to the T0 concentration (limited depletion): < 25%

## C[C@H](Cn1cnc2c(N)ncnc21)OCP(=O)(O)O [Tenofovir, tenofovir]
CYP3A4 mRNA
  true negative in vitro induction: true in vitro negatives in all three donors
[1]
  % loss when comparing the Cavg to the T0 concentration (limited depletion): < 25%

## CO[C@H]1/C=C/O[C@@]2(C)Oc3c(C)c(O)c4c(O)c(c(/C=N/N5CCN(C)CC5)c(O)c4c3C2=O)NC(=O)/C(C)=C\C=C\[C@H](C)[C@H](O)[C@@H](C)[C@@H](O)[C@@H](C)[C@H](OC(C)=O)[C@@H]1C [Rifampicin]
[1]
  % loss when comparing the Cavg to the T0 concentration (limited depletion): < 25%

## CC(C)OC(=O)[C@H](C)N[P@](=O)(OC[C@H]1O[C@@H](n2ccc(=O)[nH]c2=O)[C@](C)(F)[C@@H]1O)Oc1ccccc1 [Sofosbuvir, sofosbuvir]
CYP3A4 mRNA
  true negative in vitro induction: negative in one donor
  concentration-dependent increase in CYP3A4 mRNA: concentration-dependent increases in two of three donors
Human hepatocytes
  concentrations removed from fitting (bell-shaped curve, suspected cytotoxicity): 300 µM
